Assay results from patent US12577267B2, “Pyrimidine compounds for use as MAP4K1 inhibitors” (GLENMARK SPECIALITY S.A., priority 2021, dated 2026).
Where a name gives a salt, the structure may show the parent alone. Read-outs that look alike come from different tables or passages of the source.

Target: MAP4K-1 enzyme (Homo sapiens, UniProt Q92918)
Assay: FRET one step binding assay (tracer displacement)
Conditions: for inhibition at 1 µM: 1 μM compound; for inhibition at 10 µM: 10 μM compound
Protocol: This is a one step binding assay based on the binding and displacement of the labeled tracer, where compound addition is followed by addition of the anti-GST tagged europium (Eu) as the donor and Alexa Fluor-labeled tracer as the acceptor.
Test compounds were dissolved in dimethylsulfoxide (DMSO) to prepare 10.0 mM stock solutions and diluted to the desired concentration. The final concentration of DMSO in the reaction was 3% (v/v). The assay mixture was prepared by mixing 2 nM of the Eu-Anti-GST Antibody and 5 nM MAP4K-1 enzyme in the Kinase buffer containing 50 mM HEPES (pH 7.5), 10 mM MgCl2, 1 mM EGTA, 0.01% Brij-35 with or without the desired concentration of the compound. The reaction was incubated on ice for 15 min. […] After shaking for 5 min the reaction was further incubated for 1 hour at room temperature and this was kept at 4° C. and read on ARTEMIS reader as per the kit instructions (Thermo). […] The activity was calculated as percent of control reaction. IC50 values were calculated from dose response curve by nonlinear regression analysis using GraphPad Prism software.

Chain of MAP4K-1 enzyme (Q92918 whole entry): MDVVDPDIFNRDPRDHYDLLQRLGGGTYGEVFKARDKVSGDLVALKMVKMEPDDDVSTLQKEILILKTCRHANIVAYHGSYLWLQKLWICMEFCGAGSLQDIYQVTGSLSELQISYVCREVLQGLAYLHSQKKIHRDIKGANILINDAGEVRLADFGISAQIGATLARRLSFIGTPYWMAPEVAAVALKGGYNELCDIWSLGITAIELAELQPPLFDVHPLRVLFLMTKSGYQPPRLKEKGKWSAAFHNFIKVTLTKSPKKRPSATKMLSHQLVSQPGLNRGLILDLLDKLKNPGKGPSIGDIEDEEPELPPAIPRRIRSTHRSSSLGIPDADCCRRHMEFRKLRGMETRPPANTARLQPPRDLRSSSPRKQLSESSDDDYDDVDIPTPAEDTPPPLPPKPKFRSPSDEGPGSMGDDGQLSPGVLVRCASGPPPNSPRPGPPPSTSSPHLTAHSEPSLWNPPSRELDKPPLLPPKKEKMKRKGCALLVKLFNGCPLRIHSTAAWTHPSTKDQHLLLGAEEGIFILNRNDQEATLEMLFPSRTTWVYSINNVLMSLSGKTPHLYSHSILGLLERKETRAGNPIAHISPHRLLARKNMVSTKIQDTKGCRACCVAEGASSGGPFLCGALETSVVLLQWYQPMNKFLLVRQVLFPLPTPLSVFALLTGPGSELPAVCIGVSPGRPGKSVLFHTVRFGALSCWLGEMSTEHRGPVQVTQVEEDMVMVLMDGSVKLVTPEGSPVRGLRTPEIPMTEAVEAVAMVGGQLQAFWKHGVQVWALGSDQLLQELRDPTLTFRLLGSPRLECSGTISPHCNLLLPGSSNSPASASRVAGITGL

inhibition at 1 µM [%] | inhibition at 10 µM [%] | IC50 (read-out: IC50) [nM] | SMILES | IC50 (IC50 (nM)) [nM]
74.8 | 79 | < 50 | COc1cc2c(cc1Nc1ncc(Cl)c(Nc3ccc(OC(F)F)cc3P(C)(C)=O)n1)CN(C)CC2 [Example 45, (2-((5-Chloro-2-((6-methoxy-2-methyl-1,2,3,4-tetrahydroisoquinolin-7-yl)amino)pyrimidin-4-yl)amino)-5-(difluoromethoxy)phenyl)dimethylphosphineoxide] | –
73.6 | 73.9 | < 50 | COc1cc2c(cc1Nc1ncc(Cl)c(Nc3ccc(OCC(F)F)cc3P(C)(C)=O)n1)CN(C)CC2 [Example 46, (2-((5-Chloro-2-((6-methoxy-2-methyl-1,2,3,4-tetrahydroisoquinolin-7-yl)amino)pyrimidin-4-yl)amino)-5-(2,2-difluoroethoxy)phenyl) dimethylphosphine oxide] | –
91.4 | 88 | < 50 | COc1cc2c(cc1Nc1ncc(Cl)c(Nc3ccc(OC(F)(F)F)cc3P(C)(C)=O)n1)CN(C)CC2 [Example 47] | –
84.2 | 81.4 | < 50 | COc1cc2c(cc1Nc1ncc(Cl)c(Nc3ccc(O[C@H]4CCOC4)cc3P(C)(C)=O)n1)CN(C)CC2 [Example 48, (S)-(2-((5-Chloro-2-((6-methoxy-2-methyl-1,2,3,4-tetrahydroisoquinolin-7-yl)amino)pyrimidin-4-yl)amino)-5-((tetrahydrofuran-3-yl)oxy)phenyl)dimethylphosphineoxide] | –
94.3 | 91.7 | < 50 | COc1cc2c(cc1Nc1ncc(Cl)c(Nc3ccc(O[C@@H]4CCOC4)cc3P(C)(C)=O)n1)CN(C)CC2 [Example 49, (R)-(2-((5-Chloro-2-((6-methoxy-2-methyl-1,2,3,4-tetrahydroisoquinolin-7-yl)amino)pyrimidin-4-yl)amino)-5-((tetrahydrofuran-3-yl)oxy)phenyl)dimethyl phosphine oxide] | –
92.7 | 94.8 | < 50 | COCCOc1ccc(Nc2nc(Nc3cc4c(cc3OC)CCN(C)C4)ncc2Cl)c(P(C)(C)=O)c1 [Example 50, (2-((5-Chloro-2-((6-methoxy-2-methyl-1,2,3,4-tetrahydroisoquinolin-7-yl)amino)pyrimidin-4-yl)amino)-5-(2-methoxyethoxy)phenyl)dimethyl phosphine oxide] | –
93.1 | 94.3 | < 50 | COc1cc2c(cc1Nc1ncc(Cl)c(Nc3ccc(OC4COC4)cc3P(C)(C)=O)n1)CN(C)CC2 [Example 51, (2-((5-Chloro-2-((6-methoxy-2-methyl-1,2,3,4-tetrahydroisoquinolin-7-yl)amino)pyrimidin-4-yl)amino)-5-(oxetan-3-yloxy)phenyl)dimethyl phosphine oxide] | –
88.2 | 85.5 | < 50 | COc1cc2c(cc1Nc1ncc(Cl)c(Nc3ccc(C(=O)N(C)CCF)cc3P(C)(C)=O)n1)CN(C)CC2 [Example 52, 4-((5-Chloro-2-((6-methoxy-2-methyl-1,2,3,4-tetrahydroisoquinolin-7-yl)amino)pyrimidin-4-yl)amino)-3-(dimethylphosphoryl)-N-(2-fluoroethyl)-N-methyl benzamide] | –
82.4 | 90 | 50 to 100 | COc1cc2c(cc1Nc1ncc(Cl)c(Nc3ccc(N(C)C(=O)C(F)F)cc3P(C)(C)=O)n1)CN(C)CC2 [Example 53, N-(4-((5-Chloro-2-((6-methoxy-2-methyl-1,2,3,4-tetrahydroisoquinolin-7-yl)amino)pyrimidin-4-yl)amino)-3-(dimethylphosphoryl)phenyl)-2,2-difluoro-N-methylacetamide] | –
93.4 | 93.7 | < 50 | COc1cc2c(cc1Nc1ncc(Cl)c(Nc3ccc(C(F)F)cc3P(C)(C)=O)n1)CN(C)CC2 [Example 54, (2-((5-Chloro-2-((6-methoxy-2-methyl-1,2,3,4-tetrahydroisoquinolin-7-yl)amino)pyrimidin-4-yl)amino)-5-(difluoromethyl)phenyl)dimethylphosphine oxide] | –
94.6 | 95.3 | < 50 | COc1cc2c(cc1Nc1ncc(Cl)c(Nc3ccc(C(F)(F)F)cc3P(C)(C)=O)n1)CN(C)CC2 [Example 55, (2-((5-Chloro-2-((6-methoxy-2-methyl-1,2,3,4-tetrahydroisoquinolin-7-yl)amino)pyrimidin-4-yl)amino)-5-(trifluoromethyl)phenyl) dimethylphosphine oxide] | –
88.7 | 88.2 | < 50 | COc1cc2c(cc1Nc1ncc(Cl)c(Nc3ccc(NC(=O)CCl)cc3P(C)(C)=O)n1)CN(C)CC2 [Example 56, 2-Chloro-N-(4-((5-chloro-2-((6-methoxy-2-methyl-1,2,3,4-tetrahydroisoquinolin-7-yl)amino)pyrimidin-4-yl)amino)-3-(dimethylphosphoryl)phenyl)acetamide hydrochloride] | –
83 | 79.3 | 50 to 100 | COc1cc2c(cc1Nc1ncc(Cl)c(N=S(C)(=O)c3ccccc3P(C)(C)=O)n1)CN(C)CC2 (stereo not drawn) [Example 57, (2-(N-(5-Chloro-2-((6-methoxy-2-methyl-1,2,3,4-tetrahydroisoquinolin-7-yl)amino)pyrimidin-4-yl)-S-methylsulfonimidoyl)phenyl)dimethylphosphine oxide] | –
96.6 | 96.4 | < 50 | COc1cc2c(cc1Nc1ncc(Cl)c(Nc3ccc(S(C)(=N)=O)cc3P(C)(C)=O)n1)CN(C)CC2 (stereo not drawn) [Example 58, (2-((5-Chloro-2-((6-methoxy-2-methyl-1,2,3,4-tetrahydroisoquinolin-7-yl)amino)pyrimidin-4-yl)amino)-5-(S-methylsulfonimidoyl)phenyl)dimethylphosphine oxide] | –
83.1 | 87.3 | < 50 | COc1cc2c(cc1Nc1ncc(Cl)c(Oc3ccccc3P(C)(C)=O)n1)CN(C)CC2 [Example 59, (2-((5-Chloro-2-((6-methoxy-2-methyl-1,2,3,4-tetrahydroisoquinolin-7-yl)amino)pyrimidin-4-yl)oxy)phenyl)dimethylphosphine oxide] | –

SMILES | inhibition at 1 µM [%] | inhibition at 10 µM [%] | IC50 (read-out: IC50) [nM] | IC50 (IC50 (nM)) [nM]
[2H]C([2H])([2H])Oc1cc2c(cc1Nc1ncc(Cl)c(Nc3ccc(OS(=O)(=O)F)cc3P(C)(C)=O)n1)C([2H])([2H])NCC2 [Example 40, 4-((5-Chloro-2-((6-methoxy-d3-1,2,3,4-tetrahydroisoquinolin-7-yl-1,1-d2)amino)pyrimidin-4-yl)amino)-3-(dimethylphosphoryl)phenyl sulfofluoridate dihydrochloride] | 83.3 | 84 | – | < 50
Cn1nc(Nc2ncc(Cl)c(Nc3ccc(OS(=O)(=O)F)cc3P(C)(C)=O)n2)c2c1CNC2 [Example 41, 4-((5-Chloro-2-((1-methyl-1,4,5,6-tetrahydropyrrolo[3,4-c]pyrazol-3-yl)amino)pyrimidin-4-yl)amino)-3-(dimethylphosphoryl)phenyl sulfofluoridate hydrochloride] | 90.4 | 85 | – | < 50
CP(C)(=O)c1cc(OS(=O)(=O)F)ccc1Nc1nc(Nc2cc3n(n2)CCNC3)ncc1Cl [Example 42, 4-((5-Chloro-2-((4,5,6,7-tetrahydropyrazolo[1,5-a]pyrazin-2-yl)amino)pyrimidin-4-yl)amino)-3-(dimethylphosphoryl)phenyl sulfofluoridate dihydrochloride] | 84 | 83 | – | < 50
COc1cc2c(cc1Nc1ncc(Cl)c(Nc3ccc(N(C)S(=O)(=O)F)cc3P(C)(C)=O)n1)CN(C)CC2 [Example 43, 4-((5-Chloro-2-((6-methoxy-2-methyl-1,2,3,4-tetrahydroisoquinolin-7-yl)amino)pyrimidin-4-yl)amino)-3-(dimethylphosphoryl)phenyl)(methyl)sulfamoylfluoride dihydrochloride] | 80 | 80.5 | – | < 50
COc1cc2c(cc1Nc1ncc(Cl)c(Oc3ccc(OS(=O)(=O)F)cc3P(C)(C)=O)n1)CN(C)CC2 [Example 60, 4-((5-Chloro-2-((6-methoxy-2-methyl-1,2,3,4-tetrahydroisoquinolin-7-yl)amino)pyrimidin-4-yl)oxy)-3-(dimethylphosphoryl)phenylsulfofluoridate dihydrochloride] | 70.5 | 83.4 | – | 100 to 500
CN1CCc2cc(O)c(Nc3ncc(Cl)c(Nc4ccc(OS(=O)(=O)F)cc4P(C)(C)=O)n3)cc2C1 [Example 61, 4-((5-Chloro-2-((6-hydroxy-2-methyl-1,2,3,4-tetrahydroisoquinolin-7-yl)amino)pyrimidin-4-yl)amino)-3-(dimethylphosphoryl)phenylsulfofluoridate dihydrochloride] | 89.6 | 89.7 | – | < 50
